Reference: patent US9283222B2 (priority 2006, dated 2016)

target: Recombinant Human Poly(ADP-Ribose) Polymerase (PARP), PARP-1 (Homo sapiens (Human), UniProt P09874); settings: read-out: PARP-1 (Ki); Table 1; text calls the values EC50s
Sequence (P09874 whole entry): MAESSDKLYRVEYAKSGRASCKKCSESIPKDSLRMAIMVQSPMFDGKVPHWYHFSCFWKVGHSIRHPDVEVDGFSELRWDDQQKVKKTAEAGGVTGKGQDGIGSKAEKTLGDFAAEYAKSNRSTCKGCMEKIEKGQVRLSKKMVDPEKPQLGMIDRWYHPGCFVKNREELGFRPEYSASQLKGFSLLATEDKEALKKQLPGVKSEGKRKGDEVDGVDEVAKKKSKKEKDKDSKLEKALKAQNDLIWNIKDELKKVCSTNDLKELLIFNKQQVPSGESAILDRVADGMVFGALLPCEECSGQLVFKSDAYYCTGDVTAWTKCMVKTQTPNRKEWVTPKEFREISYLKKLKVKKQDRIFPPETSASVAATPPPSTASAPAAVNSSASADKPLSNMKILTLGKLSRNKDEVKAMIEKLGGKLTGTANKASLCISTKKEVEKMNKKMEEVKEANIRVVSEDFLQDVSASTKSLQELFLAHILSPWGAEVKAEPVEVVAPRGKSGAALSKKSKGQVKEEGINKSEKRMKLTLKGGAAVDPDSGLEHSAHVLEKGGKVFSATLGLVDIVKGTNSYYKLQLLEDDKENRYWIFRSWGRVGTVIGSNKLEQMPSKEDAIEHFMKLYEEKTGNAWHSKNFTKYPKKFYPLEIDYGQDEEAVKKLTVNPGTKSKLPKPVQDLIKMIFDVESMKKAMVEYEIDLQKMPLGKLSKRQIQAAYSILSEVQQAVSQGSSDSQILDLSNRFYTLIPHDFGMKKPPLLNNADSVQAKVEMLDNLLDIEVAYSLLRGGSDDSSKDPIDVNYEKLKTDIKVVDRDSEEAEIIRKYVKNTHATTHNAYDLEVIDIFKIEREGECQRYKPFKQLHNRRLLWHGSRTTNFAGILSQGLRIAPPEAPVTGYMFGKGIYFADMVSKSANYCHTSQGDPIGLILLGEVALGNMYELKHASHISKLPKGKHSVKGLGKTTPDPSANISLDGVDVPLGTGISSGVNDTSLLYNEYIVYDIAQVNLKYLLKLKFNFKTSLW

SMILES | Ki
Cc1ccc(C)c(CCNC(=O)c2cccc(Cc3n[nH]c(=O)c4c3CCCC4)c2)c1 [Example 399, N-(2-(2,5-dimethylphenyl)ethyl)-3-((4-oxo-3,4,5,6,7,8-hexahydrophthalazin-1-yl)methyl)benzamide] | 0.065 µM
CCOc1cc(CCNC(=O)c2cccc(Cc3n[nH]c(=O)c4c3CCCC4)c2)ccc1OC [Example 400, N-(2-(3-ethoxy-4-methoxyphenyl)ethyl)-3-((4-oxo-3,4,5,6,7,8-hexahydrophthalazin-1-yl)methyl)benzamide] | 0.022 µM
CCOc1ccc(CCNC(=O)c2cccc(Cc3n[nH]c(=O)c4c3CCCC4)c2)cc1OC [Example 401, N-(2-(4-ethoxy-3-methoxyphenyl)ethyl)-3-((4-oxo-3,4,5,6,7,8-hexahydrophthalazin-1-yl)methyl)benzamide] | 0.048 µM
COc1cccc(CCNC(=O)c2cccc(Cc3n[nH]c(=O)c4c3CCCC4)c2)c1OC [Example 402, N-(2-(2,3-dimethoxyphenyl)ethyl)-3-((4-oxo-3,4,5,6,7,8-hexahydrophthalazin-1-yl)methyl)benzamide] | 0.086 µM
COc1ccc(CCNC(=O)c2cccc(Cc3n[nH]c(=O)c4c3CCCC4)c2)c(OC)c1 [Example 403, N-(2-(2,4-dimethoxyphenyl)ethyl)-3-((4-oxo-3,4,5,6,7,8-hexahydrophthalazin-1-yl)methyl)benzamide] | 0.056 µM
COc1ccc(OC)c(CCNC(=O)c2cccc(Cc3n[nH]c(=O)c4c3CCCC4)c2)c1 [Example 404, N-(2-(2,5-dimethoxyphenyl)ethyl)-3-((4-oxo-3,4,5,6,7,8-hexahydrophthalazin-1-yl)methyl)benzamide] | 0.055 µM
COc1ccc(CCNC(=O)c2cccc(Cc3n[nH]c(=O)c4c3CCCC4)c2)cc1OC [Example 405, N-(2-(3,4-dimethoxyphenyl)ethyl)-3-((4-oxo-3,4,5,6,7,8-hexahydrophthalazin-1-yl)methyl)benzamide] | 0.019 µM
COc1cc(CCNC(=O)c2cccc(Cc3n[nH]c(=O)c4c3CCCC4)c2)cc(OC)c1 [Example 406, N-(2-(3,5-dimethoxyphenyl)ethyl)-3-((4-oxo-3,4,5,6,7,8-hexahydrophthalazin-1-yl)methyl)benzamide] | 0.042 µM
O=C(NCCc1ccc2c(c1)OCO2)c1cccc(Cc2n[nH]c(=O)c3c2CCCC3)c1 [Example 407, N-(2-(1,3-benzodioxol-5-yl)ethyl)-3-((4-oxo-3,4,5,6,7,8-hexahydrophthalazin-1-yl)methyl)benzamide] | 0.022 µM
CC(c1ccc(F)c(N2CCCC2=O)c1)c1n[nH]c(=O)c2c1CCCC2 (stereo not drawn) [Example 413, 4-(1-(4-fluoro-3-(2-oxopyrrolidin-1-yl)phenyl)ethyl)-5,6,7,8-tetrahydrophthalazin-1(2H)-one] | 0.018 µM
O=c1[nH]nc(Cc2ccc(F)c(Br)c2)c2ncccc12 [Example 415] | 3.2 µM
CCN(CCN(C)C)C(=O)c1cccc(Cc2n[nH]c(=O)c3c2CCCC3)c1 [Example 418, N-(2-(dimethylamino)ethyl)-N-ethyl-3-((4-oxo-3,4,5,6,7,8-hexahydrophthalazin-1-yl)methyl)benzamide] | 0.034 µM
CCN(CC)CCN(C)C(=O)c1cccc(Cc2n[nH]c(=O)c3c2CCCC3)c1 [Example 419, N-(2-(diethylamino)ethyl)-N-methyl-3-((4-oxo-3,4,5,6,7,8-hexahydrophthalazin-1-yl)methyl)benzamide] | 0.016 µM
CCN(Cc1ccccc1)C(=O)c1cccc(Cc2n[nH]c(=O)c3c2CCCC3)c1 [Example 420, N-benzyl-N-ethyl-3-((4-oxo-3,4,5,6,7,8-hexahydrophthalazin-1-yl)methyl)benzamide] | 0.021 µM
CC(C)N(Cc1ccccc1)C(=O)c1cccc(Cc2n[nH]c(=O)c3c2CCCC3)c1 [Example 421, N-benzyl-N-isopropyl-3-((4-oxo-3,4,5,6,7,8-hexahydrophthalazin-1-yl)methyl)benzamide] | 0.068 µM
CCCCN(Cc1ccccc1)C(=O)c1cccc(Cc2n[nH]c(=O)c3c2CCCC3)c1 [Example 422, N-benzyl-N-butyl-3-((4-oxo-3,4,5,6,7,8-hexahydrophthalazin-1-yl)methyl)benzamide] | 0.105 µM
O=C(c1cccc(Cc2n[nH]c(=O)c3c2CCCC3)c1)N(Cc1ccccc1)Cc1ccccc1 [Example 423, N,N-dibenzyl-3-((4-oxo-3,4,5,6,7,8-hexahydrophthalazin-1-yl)methyl)benzamide] | 0.12 µM
O=C(c1cccc(Cc2n[nH]c(=O)c3c2CCCC3)c1)N(CCO)Cc1ccccc1 [Example 424, N-benzyl-N-(2-hydroxyethyl)-3-((4-oxo-3,4,5,6,7,8-hexahydrophthalazin-1-yl)methyl)benzamide] | 0.031 µM
CN(CCc1ccccn1)C(=O)c1cccc(Cc2n[nH]c(=O)c3c2CCCC3)c1 [Example 426, N-methyl-3-((4-oxo-3,4,5,6,7,8-hexahydrophthalazin-1-yl)methyl)-N-(2-pyridin-2-ylethyl)benzamide] | 0.014 µM
COc1ccc(CCN(C)C(=O)c2cccc(Cc3n[nH]c(=O)c4c3CCCC4)c2)cc1OC [Example 427, N-(2-(3,4-dimethoxyphenyl)ethyl)-N-methyl-3-((4-oxo-3,4,5,6,7,8-hexahydrophthalazin-1-yl)methyl)benzamide] | 0.022 µM

SMILES | Ki
O=C(c1cccc(Cc2n[nH]c(=O)c3c2CCCC3)c1)N1CCC(O)CC1 [Example 428, 4-(3-((4-hydroxypiperidin-1-yl)carbonyl)benzyl)-5,6,7,8-tetrahydrophthalazin-1(2H)-one] | 0.005 µM
NC(=O)C1CCCN(C(=O)c2cccc(Cc3n[nH]c(=O)c4c3CCCC4)c2)C1 (stereo not drawn) [Example 429, 1-(3-((4-oxo-3,4,5,6,7,8-hexahydrophthalazin-1-yl)methyl)benzoyl)piperidine-3-carboxamide] | 0.019 µM
NC(=O)C1CCN(C(=O)c2cccc(Cc3n[nH]c(=O)c4c3CCCC4)c2)CC1 [Example 430, 1-(3-((4-oxo-3,4,5,6,7,8-hexahydrophthalazin-1-yl)methyl)benzoyl)piperidine-4-carboxamide] | 0.005 µM
O=C(c1cccc(Cc2n[nH]c(=O)c3c2CCCC3)c1)N1CCC(n2c(=O)[nH]c3ccccc32)CC1 [Example 434, 4-(3-((4-(2-oxo-2,3-dihydro-1H-benzimidazol-1-yl)piperidin-1-yl)carbonyl)benzyl)-5,6,7,8-tetrahydrophthalazin-1(2H)-one] | 0.006 µM
CN1CCN(C(=O)c2cccc(Cc3n[nH]c(=O)c4c3CCCC4)c2)CC1 [Example 435, 4-(3-((4-methylpiperazin-1-yl)carbonyl)benzyl)-5,6,7,8-tetrahydrophthalazin-1(2H)-one] | 0.02 µM
CCN1CCN(C(=O)c2cccc(Cc3n[nH]c(=O)c4c3CCCC4)c2)CC1 [Example 436, 4-(3-((4-ethylpiperazin-1-yl)carbonyl)benzyl)-5,6,7,8-tetrahydrophthalazin-1(2H)-one] | 0.01 µM
O=CN1CCN(C(=O)c2cccc(Cc3n[nH]c(=O)c4c3CCCC4)c2)CC1 [Example 437, 4-(3-((4-oxo-3,4,5,6,7,8-hexahydrophthalazin-1-yl)methyl)benzoyl)piperazine-1-carbaldehyde] | 0.004 µM
CC(=O)N1CCN(C(=O)c2cccc(Cc3n[nH]c(=O)c4c3CCCC4)c2)CC1 [Example 438, 4-(3-((4-acetylpiperazin-1-yl)carbonyl)benzyl)-5,6,7,8-tetrahydrophthalazin-1(2H)-one] | 0.003 µM
O=C(c1cccc(Cc2n[nH]c(=O)c3c2CCCC3)c1)N1CCN(CCO)CC1 [Example 439, 4-(3-((4-(2-hydroxyethyl)piperazin-1-yl)carbonyl)benzyl)-5,6,7,8-tetrahydrophthalazin-1(2H)-one] | 0.008 µM
O=C(c1cccc(Cc2n[nH]c(=O)c3c2CCCC3)c1)N1CCN(c2ccccc2)CC1 [Example 440, 4-(3-((4-phenylpiperazin-1-yl)carbonyl)benzyl)-5,6,7,8-tetrahydrophthalazin-1(2H)-one] | 0.003 µM
O=C(c1cccc(Cc2n[nH]c(=O)c3c2CCCC3)c1)N1CCN(c2ccccn2)CC1 [Example 441, 4-(3-((4-pyridin-2-ylpiperazin-1-yl)carbonyl)benzyl)-5,6,7,8-tetrahydrophthalazin-1(2H)-one] | 0.003 µM
O=C(c1cccc(Cc2n[nH]c(=O)c3c2CCCC3)c1)N1CCN(c2ncccn2)CC1 [Example 442, 4-(3-((4-pyrimidin-2-ylpiperazin-1-yl)carbonyl)benzyl)-5,6,7,8-tetrahydrophthalazin-1(2H)-one] | 0.0008 µM
O=C(c1cccc(Cc2n[nH]c(=O)c3c2CCCC3)c1)N1CCN(CCOCCO)CC1 [Example 443, 4-(3-((4-(2-(2-hydroxyethoxy)ethyl)piperazin-1-yl)carbonyl)benzyl)-5,6,7,8-tetrahydrophthalazin-1(2H)-one] | 0.016 µM
O=C(c1cccc(Cc2n[nH]c(=O)c3c2CCCC3)c1)N1CCN(c2ccccc2F)CC1 [Example 444, 4-(3-((4-(2-fluorophenyl)piperazin-1-yl)carbonyl)benzyl)-5,6,7,8-tetrahydrophthalazin-1(2H)-one] | 0.004 µM
O=C(c1cccc(Cc2n[nH]c(=O)c3c2CCCC3)c1)N1CCN(c2ccc(F)cc2)CC1 [Example 445, 4-(3-((4-(4-fluorophenyl)piperazin-1-yl)carbonyl)benzyl)-5,6,7,8-tetrahydrophthalazin-1(2H)-one] | 0.006 µM
O=C(c1cccc(Cc2n[nH]c(=O)c3c2CCCC3)c1)N1CCN(c2ccccc2Cl)CC1 [Example 446, 4-(3-((4-(2-chlorophenyl)piperazin-1-yl)carbonyl)benzyl)-5,6,7,8-tetrahydrophthalazin-1(2H)-one] | 0.01 µM
CN1CCCN(C(=O)c2cccc(Cc3n[nH]c(=O)c4c3CCCC4)c2)CC1 [Example 447, 4-(3-((4-methyl-1,4-diazepan-1-yl)carbonyl)benzyl)-5,6,7,8-tetrahydrophthalazin-1(2H)-one] | 0.01 µM
O=c1[nH]nc(Cc2ccc(F)c(N3CCCCS3(=O)=O)c2)c2c1CCCC2 [Example 448] | 0.694 µM
O=C1CCN1c1cc(Cc2n[nH]c(=O)c3cccnc23)ccc1F [Example 449, 8-(4-fluoro-3-(2-oxoazetidin-1-yl)benzyl)pyrido(2,3-d)pyridazin-5(6H)-one] | 0.103 µM
